From patent US12486284B2, “Ubiquitin-specific protease inhibitor and preparation method therefor and use thereof” (CHASER THERAPEUTICS, INC., priority 2019, dated 2025)
Read-outs that look alike come from different tables or passages of the source.

Assays:
USP28 = target: T1, USP28 (Homo sapiens, UniProt Q96RU2); assay: USP28 activity measured using ubiquitin-rhodamine 110 method; assay type: biochemical; details: for IC50: purified USP28 4 nM, ubiquitin-rhodamine 110 125 nM, 30 min preincubation
T1 construct: purchased R&D Systems
T1 sequence (Q96RU2 1-1077): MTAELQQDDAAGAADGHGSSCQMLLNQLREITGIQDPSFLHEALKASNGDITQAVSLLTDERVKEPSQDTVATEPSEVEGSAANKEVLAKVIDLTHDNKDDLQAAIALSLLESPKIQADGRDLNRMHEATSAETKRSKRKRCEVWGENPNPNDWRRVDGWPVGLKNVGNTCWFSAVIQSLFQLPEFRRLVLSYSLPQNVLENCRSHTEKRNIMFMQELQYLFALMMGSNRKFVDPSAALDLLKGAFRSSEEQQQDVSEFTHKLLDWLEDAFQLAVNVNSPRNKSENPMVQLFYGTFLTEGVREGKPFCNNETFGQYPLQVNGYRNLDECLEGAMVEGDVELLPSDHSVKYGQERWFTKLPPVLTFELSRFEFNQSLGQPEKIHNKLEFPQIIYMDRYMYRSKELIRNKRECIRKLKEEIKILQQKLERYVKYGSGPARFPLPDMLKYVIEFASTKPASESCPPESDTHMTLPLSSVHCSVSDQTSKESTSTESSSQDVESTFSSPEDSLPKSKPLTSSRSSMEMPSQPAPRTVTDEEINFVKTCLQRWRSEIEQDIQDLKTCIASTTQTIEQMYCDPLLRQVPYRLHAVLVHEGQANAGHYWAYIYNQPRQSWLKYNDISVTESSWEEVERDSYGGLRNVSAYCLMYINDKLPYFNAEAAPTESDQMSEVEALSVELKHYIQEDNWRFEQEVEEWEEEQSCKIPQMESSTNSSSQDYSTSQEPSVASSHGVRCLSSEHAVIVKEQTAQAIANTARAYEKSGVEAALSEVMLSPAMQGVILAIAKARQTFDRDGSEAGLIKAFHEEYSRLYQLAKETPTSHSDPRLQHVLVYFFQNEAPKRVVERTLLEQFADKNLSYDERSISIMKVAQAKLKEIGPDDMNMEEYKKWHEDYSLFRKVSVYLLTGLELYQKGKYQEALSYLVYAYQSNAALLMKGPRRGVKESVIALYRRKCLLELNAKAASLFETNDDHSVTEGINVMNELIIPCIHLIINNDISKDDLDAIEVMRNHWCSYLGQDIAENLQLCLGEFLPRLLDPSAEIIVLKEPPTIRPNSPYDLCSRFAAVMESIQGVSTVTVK
Experimental: USP28 activity was measured using ubiquitin-rhodamine 110 method.
(§1) Purified USP28 and the ubiquitin-rhodamine 110 substrate used for measuring DUBs activity were both from R&D Systems. Test compounds were first dissolved in DMSO to prepare a 10 mM stock solution, and then the stock solution was diluted with a buffer solution [containing 20 mM Tris-HCl (pH 8.0), 2 mM CaCl2), 3 mM BME, 0.01% Prionix, 0.01% Triton X-100] to the desired concentration (with DMSO content less than or equal to 0.5%). The dilution was mixed well with USP28 (final concentration 4 nM) in a 96-well plate and incubated at room temperature for 30 min, and then added with the substrate (ubiquitin-rhodamine 110) to 125 nM. The final volume of the whole reaction system was 20 μL. The released fluorescence (excitation wavelength 485 nm, emission wavelength 535 nm) was detected immediately on a microplate reader after the addition of the substrate. The inhibitory rate of the test compound against USP28 was calculated according to the following formula: Inhibition %=1−[(test compound+fluorescence value of substrate−fluorescence value of test compound (no substrate))/mean fluorescence value of DMSO control group−fluorescence value of test compound (no substrate)]
According to the inhibitory rates of the test compound against USP28 under different concentrations, IC50 was calculated.

USP25 = target: T2, USP25 (Homo sapiens, UniProt Q9UHP3); assay: USP25 activity measured using ubiquitin-rhodamine 110 method; assay type: biochemical; details: for IC50: purified USP25 15 nM, ubiquitin-rhodamine 110 125 nM, 30 min preincubation
T2 construct: purchased R&D Systems
T2 sequence (Q9UHP3 1-1055): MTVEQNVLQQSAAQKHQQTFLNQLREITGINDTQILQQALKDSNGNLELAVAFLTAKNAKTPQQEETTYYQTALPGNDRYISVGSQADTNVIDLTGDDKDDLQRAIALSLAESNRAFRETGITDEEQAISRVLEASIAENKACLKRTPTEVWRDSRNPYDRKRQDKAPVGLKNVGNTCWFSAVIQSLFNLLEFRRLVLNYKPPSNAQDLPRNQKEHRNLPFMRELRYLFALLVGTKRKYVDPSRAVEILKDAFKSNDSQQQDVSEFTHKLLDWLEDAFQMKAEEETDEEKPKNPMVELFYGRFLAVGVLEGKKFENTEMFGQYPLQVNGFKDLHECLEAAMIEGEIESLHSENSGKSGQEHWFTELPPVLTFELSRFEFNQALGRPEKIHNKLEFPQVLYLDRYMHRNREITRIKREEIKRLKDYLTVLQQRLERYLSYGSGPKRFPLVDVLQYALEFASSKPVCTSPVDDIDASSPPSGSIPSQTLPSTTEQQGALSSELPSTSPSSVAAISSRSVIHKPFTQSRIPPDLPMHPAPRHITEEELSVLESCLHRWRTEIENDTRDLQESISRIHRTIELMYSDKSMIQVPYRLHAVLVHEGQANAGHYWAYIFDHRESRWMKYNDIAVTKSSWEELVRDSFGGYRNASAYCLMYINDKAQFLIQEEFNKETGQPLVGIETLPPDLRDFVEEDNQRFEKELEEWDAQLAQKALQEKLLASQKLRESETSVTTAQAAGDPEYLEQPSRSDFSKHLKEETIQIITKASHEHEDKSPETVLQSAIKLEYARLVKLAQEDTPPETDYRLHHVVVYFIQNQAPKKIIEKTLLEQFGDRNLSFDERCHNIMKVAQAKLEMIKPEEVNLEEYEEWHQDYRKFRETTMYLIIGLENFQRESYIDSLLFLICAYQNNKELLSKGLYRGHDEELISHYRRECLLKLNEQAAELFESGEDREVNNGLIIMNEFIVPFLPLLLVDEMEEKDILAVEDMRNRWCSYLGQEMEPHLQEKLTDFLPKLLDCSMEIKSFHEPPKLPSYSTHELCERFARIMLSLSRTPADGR
Experimental: USP25 activity was measured using ubiquitin-rhodamine 110 method.
as §1, with “Purified USP25” for “Purified USP28”, “with USP25” for “with USP28”, “concentration 15” for “concentration 4”, “the substrate, and the” for “the substrate. The”, “against USP25” for “against USP28”
As in Example 11, according to the inhibitory rates of the test compound against USP25 under different concentrations, IC50 was calculated.

[1] = read-out: Inhibitory activity against USP28 (IC50)
[2] = read-out: Inhibitory activity against USP25 (IC50)
[3] = Inhibitory activity against USP28 (IC50)
[4] = Inhibitory activity against USP25 (IC50)
[5] = ratio of IC50 of related 3-NH2 compound (F) to IC50 of 3-NHMe compound disclosed herein (E)

Structure (SMILES)	IC50 (USP28; [1])	IC50 (USP25; [2])	IC50 (USP28; [3])	also measured
CNc1c(C(=O)NCCc2ccc(N3C[C@H]4CC[C@@H](C3)N4)cc2)sc2nc(C)cc(C)c12 [Compound I-26]	100 to 1000 nM	5000 to 10000 nM	–	–
CNc1c(C(=O)NCCc2ccc(N3C[C@H]4CC[C@@H](C3)N4)cc2)sc2nc(C)cc(C(F)(F)F)c12 [Compound I-27]	–	–	< 100 nM	IC50 (USP25; [4]): < 100 nM
CNc1c(C(=O)NCCc2ccc(N3C[C@H]4CC[C@@H](C3)N4)cc2)sc2nc(C(F)F)cc(C)c12 [Compound I-28]	–	–	< 100 nM	IC50 (USP25; [4]): < 100 nM
CNc1c(C(=O)NCCc2ccc(N3C[C@H]4CC[C@@H](C3)N4)cc2)sc2nc(C)c(F)cc12 [Compound I-29]	–	100 to 1000 nM	< 100 nM	–
CNc1c(C(=O)NCCc2ccc(N3C[C@H]4CC[C@@H](C3)N4)cc2)sc2nc(C)c(C)cc12 [Compound I-30]	100 to 1000 nM	1000 to 5000 nM	–	–
CCc1nc2sc(C(=O)NCCc3ccc(N4C[C@H]5CC[C@@H](C4)N5)cc3)c(NC)c2cc1C [Compound I-31]	–	100 to 1000 nM	< 100 nM	–
CCc1nc2sc(C(=O)NCCc3ccc(N4C[C@H]5CC[C@@H](C4)N5)cc3)c(NC)c2c(C(F)(F)F)c1C [Compound I-32]	–	5000 to 10000 nM	< 100 nM	–
CNc1c(C(=O)NCCc2ccc(N3C[C@H]4CC[C@@H](C3)N4)c(C)c2)sc2nc(C)ccc12 [Compound I-33]	–	5000 to 10000 nM	< 100 nM	–
CCc1cc(CCNC(=O)c2sc3nc(C)ccc3c2NC)ccc1N1[C@@H]2CC[C@H]1CNC2 [Compound I-34]	–	100 to 1000 nM	< 100 nM	–
CNc1c(C(=O)NCCc2ccc(N3C[C@H]4CC[C@@H](C3)N4)c(C3CC3)c2)sc2nc(C)ccc12 [Compound I-35]	–	100 to 1000 nM	< 100 nM	–
CNc1c(C(=O)NCCc2ccc(N3C[C@H]4CC[C@@H](C3)N4)c(OC)c2)sc2nc(C)ccc12 [Compound I-36]	–	–	< 100 nM	IC50 (USP25; [4]): < 100 nM
CNc1c(C(=O)NCCc2ccc(N3C[C@H]4CC[C@@H](C3)N4)c(C#N)c2)sc2nc(C)ccc12 [Compound I-37]	–	–	< 100 nM	IC50 (USP25; [4]): < 100 nM
CNc1c(C(=O)NCCc2ccc(N3C[C@H]4CC[C@@H](C3)N4)c(Cl)c2)sc2nc(C)ccc12 [Compound I-38]	–	> 10000 nM	< 100 nM	–
CNc1c(C(=O)NCCc2ccc(N3C[C@H]4CC[C@@H](C3)N4)cc2F)sc2nc(C)ccc12 [Compound I-39]	100 to 1000 nM	100 to 1000 nM	–	–
CNc1c(C(=O)NCCc2ccc(N3C[C@H]4CC[C@@H](C3)N4)c(F)c2)sc2nc(C)ccc12 [Compound I-40]	–	100 to 1000 nM	< 100 nM	–
CNc1c(C(=O)NCCc2ccc(N3C[C@H]4CC[C@@H](C3)N4)c(C(F)(F)F)c2)sc2nc(C)ccc12 [Compound I-41]	100 to 1000 nM	> 10000 nM	–	–
CNc1c(C(=O)NCCc2cc(F)c(N3C[C@H]4CC[C@@H](C3)N4)cc2F)sc2nc(C)ccc12 [Compound I-42]	–	> 10000 nM	< 100 nM	–
CNc1c(C(=O)NCCc2cc(F)c(N3C[C@H]4CC[C@@H](C3)N4)c(F)c2)sc2nc(C)ccc12 [Compound I-43]	–	> 10000 nM	< 100 nM	–
CNc1c(C(=O)NCCc2cc(F)c(N3C[C@H]4CC[C@@H](C3)N4)c(Cl)c2)sc2nc(C)ccc12 [Compound I-44]	–	> 10000 nM	< 100 nM	–
CNc1c(C(=O)NCCc2c(F)cc(N3C[C@H]4CC[C@@H](C3)N4)cc2F)sc2nc(C)ccc12 [Compound I-45]	–	> 10000 nM	< 100 nM	–
CNc1c(C(=O)NCCc2ccc(N3C[C@H]4CC[C@@H](C3)N4)c(F)c2F)sc2nc(C)ccc12 [Compound I-46]	100 to 1000 nM	5000 to 10000 nM	–	–
CNc1c(C(=O)NCCc2cc(F)c(N3C[C@H]4CC[C@@H](C3)N4)c(F)c2F)sc2nc(C)ccc12 [Compound I-47]	–	5000 to 10000 nM	< 100 nM	–
CNc1c(C(=O)NCCc2c[nH]c3ccccc23)sc2ncccc12 [Compound I-48]	< 100 nM	5000 to 10000 nM	–	–
CNc1c(C(=O)NCCc2c[nH]c3ccccc23)sc2nc(C)ccc12 [Compound I-49]	< 100 nM	1000 to 5000 nM	–	IC50(F)/IC50(E) USP28 (USP28; [5]): 5.0; IC50(F)/IC50(E) USP25 (USP25; [5]): >7
CCc1ccc2c(NC)c(C(=O)NCCc3c[nH]c4ccccc34)sc2n1 [Compound I-50]	< 100 nM	1000 to 5000 nM	–	–
CCCc1ccc2c(NC)c(C(=O)NCCc3c[nH]c4ccccc34)sc2n1 [Compound I-51]	< 100 nM	1000 to 5000 nM	–	–
CCc1nc2sc(C(=O)NCCc3c[nH]c4ccccc34)c(NC)c2cc1C [Compound I-52]	< 100 nM	5000 to 10000 nM	–	–
CNc1c(C(=O)NCCc2c[nH]c3ccccc23)sc2nc(C)cc(C)c12 [Compound I-53]	100 to 1000 nM	> 10000 nM	–	–
